# According to PMC11200626, “In Vitro Biological Activities of Hesperidin-Related Compounds with Different Solubility” (Antioxidants, 2024):
# Read-outs that look alike come from different tables or passages of the source.
# Assays:
# [1] = β-carotene bleaching assay; conditions: for IC50: β-carotene/linoleic acid emulsion, 50 °C, 2 h
# Description: Measurements of the inhibition activity of β-carotene oxidation were performed using the method described by Wanasundara et al. and Hidalgo et al. with slight modifications. Briefly, a mixture of β-carotene and linoleic acid was prepared by dissolving 0.2 mg of β-carotene in 1 mL of chloroform and mixing this solution with 200 mg of Tween 20 containing 20 mg of linoleic acid. After removing the chloroform from the mixture in a rotary evaporator at 50 °C, 100 mL of deionized water was added to prepare an emulsion. The diluted sample (100 μL) was mixed with 900 μL of the prepared emulsion and the absorbance was measured immediately at 470 nm. Then, after a reaction at 50 °C for 2 h, the absorbance was measured again at 470 nm. Antioxidant activity was evaluated as a percent of oxidation inhibition compared to the untreated group sample. As a positive control, BHT (butylated hydroxytoluene) was used in the experiment. β−Carotene bleaching inhibition activity%=A0−At−(B0−Bt)/A0−At×100 where A0 is the initial absorbance without a sample, At is the final absorbance without a sample, B0 is the initial absorbance with a sample, and Bt is the final absorbance with a sample.
# [2] = DPPH radical scavenging assay; conditions: for IC50: 0.2 mM DPPH in ethanol, 37 °C, 30 min, read-out: IC50 representing 50% of DPPH radical scavenging
# Description: Measurements of DPPH radical scavenging activity were performed based on the method described by Ratha et al. and Blois, with slight modifications. Briefly, DPPH was dissolved in absolute ethanol to 0.2 mM, and 20 μL of the diluted sample was added to 180 μL of the DPPH solution. The reaction was performed at 37 °C for 30 min to stabilize the color, and the absorbance of the reaction solution was measured at 520 nm using a microplate reader (Epoch2, Bio Tek, Winooski, VT, USA). The DPPH radical scavenging activity was calculated using the following formula. Ascorbic acid was used as a positive control. DPPH radical scavenging activity%=A−B/A×100 where A is the absorbance of the reaction solution without a sample, and B is the absorbance of the reaction solution with a sample.
# IL-6 in HaCaT cells = test: Cellular IL-6 levels after UV irradiation (ELISA); assay type: cell-based, Human; conditions: UV 10 mJ/cm^2, 24 h, tested concentrations up to 25 μM
# Description: (§1) Cellular levels of TNF-α and IL-6 were measured in HaCaT cells after the addition of various concentrations of HTL, HT, HD, and HDG under UV irradiation. The cell culture and sample treatment conditions for the TNF-α and IL-6 assay were the same as those used in the NO assay. The TNF-α and IL-6 contents in the media were measured, respectively, using commercial detection kits according to the manufacturer’s protocols. The absorbance was measured at 450 nm in the same microplate reader as above.
# Candida albicans = test: MIC, broth micro-dilution with resazurin; assay type: cell-based, Candida albicans (KCCM 50235); conditions: read-out: MIC Value
# Description: (§2) Antimicrobial capacity was evaluated against some bacteria and yeast known to be major skin resident microorganisms. Staphylococcus aureus (KCCM 11335) was cultivated on TS agar, and Cutibacterium acnes (KCTC 25526) was cultivated on RCM agar in an anaerobic jar (Rec. Jar, Mitsubishi Gas Chemical Co., Tokyo, Japan) with anaerobic gas packs. Candida albicans (KCCM 50235) was cultivated on YM agar, and Malassezia furfur (KCTC 7545) was cultivated on MLN agar. All the microbes were cultivated at 35 °C.
# (§3) For the determination of MIC, S. aureus was cultivated in TS broth, and C. acnes was cultivated in RCM medium in an anaerobic jar with gentle shaking. C. albicans was cultivated in an RPMI-1640 medium supplemented with L-glutamine, and M. furfur was cultivated in an RPMI medium supplemented with 2% oleic acid, 0.5% glycerol, 0.5% Tween 60, and 0.2% sodium bicarbonate. All the microbes were cultivated at 35 °C, and the inoculum size for MICs was 5 × 10^5 cells/mL for S. aureus, and 1.5 × 10^5 cells/mL for C. acnes, C. albicans, and M. furfur, respectively.
# MIC values were determined by the broth micro-dilution method with some modifications. Briefly, the culture broth of each microorganism was diluted with the same medium. Two-fold serial dilutions of HTL, HT, HD, and HDG ranging from 4000 to 62.5 μg/mL (depending on the microorganism tested) were performed in 96 well plates. After incubation for sufficient growth, the resazurin solution (1 mg/mL, 10 µL) was added to each well and the plate was incubated for 2 h. The MIC value for a microorganism was determined as the lowest concentration of the tested compound that prevented the color change of resazurin (blue to pink).
# [3] = n-octanol–water partition coefficient; assay type: physicochemical; conditions: 500 μM sample, 20 h at 20 °C, HPLC, mean ± SD (n = 3); for logP at 20 h: n-octanol/water, read-out: Log Po/w (n-octanol–water partition coefficient) (converted)
# Description: The hydrophobic/hydrophilic properties were investigated by measuring octanol–water partition coefficients. Octanol–water partition coefficients of the four hesperidin-related compounds were determined by the method described in the previous study. Briefly, samples (500 μM) were mixed in deionized water with an equal volume of n-octanol, and then the mixture was kept for 20 h at 20 °C in the dark to reach partition equilibrium. The concentration of each sample was determined by HPLC, and the partition coefficient (log P) was calculated as the ratio of the concentration in the n-octanol phase to the concentration in the water phase. Partition coefficient LogP=LogCoctanol/[C]water where [C]n-octanol is the concentration of a compound in the n-octanol phase, and [C]water is the concentration of a compound in the water phase.
# [4] = tested on: nitric oxide (NO) in HaCaT cells; test: Cellular NO levels after UV irradiation; assay type: cell-based; conditions: UV 10 mJ/cm^2, 24 h; for NO levels (in words): tested up to 50 μM; for NO production (in words): at 25 μM
# Description: Cellular NO levels were determined as an inflammatory intermediate in HaCaT cells. […] Then, cells with or without samples were irradiate with 10 mJ/cm^2 of UV rays at 302 nm using a UV irradiator (UV Crosslinker CL-1000M, UVP, Upland, CA, USA). […] After 24 h incubation, the NO content in the media was measured using an NO assay kit according to the manufacturer’s experimental protocol. The absorbance was measured at 540 nm in the same microplate reader as above.
# TNF-α in HaCaT cells = test: Cellular TNF-α levels after UV irradiation (ELISA); assay type: cell-based, Human; conditions: UV 10 mJ/cm^2, 24 h, tested concentrations up to 25 μM
# Description: as §1
# [5] = Water solubility (in words); assay type: physicochemical
# HaCaT cells = test: MTT cell viability / cytotoxicity assay; conditions: 24 h, tested 12.5–200 μM
# Description: The keratinocyte HaCaT cell line was obtained from AddexBio (SanDiego, CA, USA). The cells were maintained in DMEM supplemented with 10% FBS and 1% of penicillin/streptomycin under a humidified atmosphere condition of 5% CO2 at 37 °C. The cytotoxicity of HD and the related compounds was assessed by MTT assay. Cells were seeded in 96-well plates at a density of 2 × 10^4 cells/well and incubated for 24 h at 37 °C. Each sample of HTL, HT, HD, and HDG was dissolved in DMSO as a stock solution (0.1 M). […] After incubation for 24 h, the culture medium was removed and MTT solution (100 μL) was added to the well. The mixture was kept at 37 °C for 2 h, then DMSO was added to the reaction mixture and the absorbance at 540 nm was measured in a microplate reader (Epoch2, Bio Tek, Winooski, VT, USA). Cell viability was calculated as a percentage of difference in absorbance between control and test samples.
# Staphylococcus aureus = test: MIC, broth micro-dilution with resazurin; assay type: cell-based, Staphylococcus aureus (KCCM 11335); conditions: TS broth, 35 °C, tested up to 4000 μg/mL
# Description: as §2, §3
# (§4) MIC values were determined by the broth micro-dilution method with some modifications. Briefly, the culture broth of each microorganism was diluted with the same medium. […] The MIC value for a microorganism was determined as the lowest concentration of the tested compound that prevented the color change of resazurin (blue to pink).
# Malassezia furfur = test: MIC, broth micro-dilution with resazurin; assay type: cell-based, Malassezia furfur (KCTC 7545); conditions: supplemented RPMI, 35 °C, tested up to 4000 μg/mL
# Description: as §2, §3, §4
# Cutibacterium acnes = test: MIC, broth micro-dilution with resazurin; assay type: cell-based, Cutibacterium acnes (KCTC 25526); conditions: RCM medium, anaerobic, 35 °C, tested up to 4000 μg/mL
# Description: as §2, §3, §4
# [6] = RPMI-1640, 35 °C, tested up to 4000 μg/mL
SMILES,IC50 [1],IC50 [2],effect on IL-6 production (in words) (IL-6 in HaCaT cells),MIC (Candida albicans),logP at 20 h [3],NO levels (in words) [4],effect on TNF-α production (in words) (TNF-α in HaCaT cells),water solubility (in words) [5],concentration showing cytotoxic effects / cell death (HaCaT cells),MIC (Staphylococcus aureus),MIC (Malassezia furfur),MIC (Candida albicans; [6]),Log Po/w (n-octanol–water partition coefficient) [3],NO production (in words) [4],cytotoxicity (in words) (HaCaT cells),MIC (Cutibacterium acnes),"β-carotene bleaching inhibitory activity ([1]; at a concentration of 25 μM, positive control)","DPPH radical scavenging activity ([2]; at a concentration of 50 μM, positive control)"
"COc1ccc(C2CC(=O)c3c(O)cc(O[C@@H]4O[C@H](CO[C@@H]5O[C@@H](C)[C@H](O)[C@@H](O)[C@H]5O)[C@@H](O)[C@H](O)[C@H]4O)cc3O2)cc1O (stereo partly shown) [HD, hesperetin 7-rutinoside]",260.8 ± 2.55 µM,1409 ± 3.43 µM,Drastic effects were not observed,2000 µg/mL,2.13 ± 0.03,reduced NO levels at higher concentrations,Drastic effects were not observed,poorly soluble in water,100~200 μM,–,–,–,–,–,–,–,–,–
"CCCCCCCCCCCC(=O)Oc1cc(O)c2c(c1)OC(c1ccc(OC)c(O)c1)CC2=O (stereo not shown) [HTL, hesperetin laurate]",105 ± 2.01 µM,899.1 ± 2.52 µM,highest reducing effect,–,7.28 ± 0.06,–,highest reducing effect,extremely insoluble in water,–,2000 µg/mL,1000 µg/mL,250 µg/mL,7.08 ± 0.06,markedly decreased,induced cell death at relatively low concentrations,1000 µg/mL,–,–
"Cc1cc(C(C)(C)C)c(O)c(C(C)(C)C)c1 [BHT, butylated hydroxytoluene, reference compound]",–,–,–,–,–,–,–,–,–,–,–,–,–,–,–,–,47.08%,–
"COc1ccc([C@@H]2CC(=O)c3c(O)cc(O)cc3O2)cc1O [HT, hesperetin]",110 ± 3.74 µM,893.1 ± 1.67 µM,–,–,2.59,–,–,hardly soluble in water,100~200 μM,2000 µg/mL,–,500 µg/mL,–,markedly decreased,–,1000 µg/mL,–,–
"COc1ccc(C2CC(=O)c3c(O)cc(O[C@@H]4O[C@H](CO[C@@H]5O[C@@H](C)[C@H](O)[C@@H](O)[C@H]5O)[C@@H](O[C@H]5O[C@H](CO)[C@@H](O)[C@H](O)[C@H]5O)[C@H](O)[C@H]4O)cc3O2)cc1O (stereo partly shown) [HDG, hesperidin glucoside]",267 ± 2.69 µM,1408 ± 3.73 µM,Drastic effects were not observed,–,-3.45,reduced NO levels at higher concentrations,Drastic effects were not observed,highly soluble in water,> 200 µM,–,–,2000 µg/mL,–,–,much less cytotoxicity than the other compounds,–,–,–
"O=C1O[C@H]([C@@H](O)CO)C(O)=C1O [Ascorbic acid, reference compound]",–,–,–,–,–,–,–,–,–,–,–,–,–,–,–,–,–,48.74%
